CCc1ccc2c(c1)C(=O)c1ccccc1C2=O
solubility (mole fraction)
Conditions	304.15 K	309.15 K	314.15 K	319.15 K	324.15 K	329.15 K	334.15 K	339.15 K	344.15 K
in 2-methyl-cyclohexyl acetate	0.0752	0.0907	0.104	0.127	0.145	0.171	0.199	0.232	0.268
in 2-phenylethanol	0.107	0.127	0.15	0.176	0.21	0.248	0.288	0.334	0.385
in DMAc	0.0943	0.113	0.131	0.156	0.184	0.214	0.248	0.287	0.336
in DMF	0.107	0.126	0.153	0.176	0.21	0.245	0.283	0.335	0.388
in acetophenone	0.138	0.163	0.185	0.21	0.238	0.274	0.315	0.356	0.397
in diglyme	0.165	0.191	0.216	0.244	0.275	0.314	0.357	0.401	0.444
in diisobutyl methanol	0.0441	0.0536	0.0651	0.0787	0.0973	0.116	0.139	0.163	0.199
in dioctyl adipate	0.0657	0.0773	0.0899	0.107	0.129	0.152	0.18	0.209	0.242
in mesitylene	0.139	0.159	0.184	0.209	0.234	0.264	0.296	0.329	0.371
in styrene	0.0944	0.112	0.132	0.153	0.182	0.212	0.248	0.285	0.335
in tetrabutyl urea	0.0531	0.0644	0.0785	0.0947	0.116	0.139	0.17	0.197	0.24
in trioctyl phosphate	0.0569	0.0678	0.0792	0.0959	0.114	0.135	0.155	0.182	0.22
